# Structures can show the parent of a compound that is named as a salt.
# Target: T1, full length SGK1 (Homo sapiens, UniProt O00141)
# T1 construct: 125 μM full length SGK1 (Life Technologies Part #PR7358A); purchased Life Technologies PR7358A
# T1 sequence (O00141 1-431): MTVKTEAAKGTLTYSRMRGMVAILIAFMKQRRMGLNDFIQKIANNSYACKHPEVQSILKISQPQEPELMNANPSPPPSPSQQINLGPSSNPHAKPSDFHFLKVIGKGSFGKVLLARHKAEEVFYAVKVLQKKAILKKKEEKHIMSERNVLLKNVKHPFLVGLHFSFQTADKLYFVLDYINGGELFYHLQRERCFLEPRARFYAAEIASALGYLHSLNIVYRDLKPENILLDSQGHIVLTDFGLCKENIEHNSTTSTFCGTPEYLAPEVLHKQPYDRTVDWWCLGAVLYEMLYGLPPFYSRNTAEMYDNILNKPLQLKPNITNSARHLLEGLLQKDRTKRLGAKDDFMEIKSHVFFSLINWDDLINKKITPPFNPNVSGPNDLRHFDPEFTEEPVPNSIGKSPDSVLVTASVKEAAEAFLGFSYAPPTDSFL
# Test: SGK1 inhibition Assay A (Caliper LabChip electrophoretic separation of fluorescent peptide substrate and phosphorylated product)
# Format: biochemical
# Details: Assay A; 20 μM ATP, 40 min incubation; read-out: SGK1 IC50
row,Structure (SMILES),IC50
1,"CS(=O)(=O)c1ccc(-c2cc(N3CCC[C@@H](NC(=O)c4cc(Cl)ns4)C3)c3c(N)ncnn23)cc1 [Example 72, (R)-N-(1-(4-amino-7-(4-(methylsulfonyl)phenyl)pyrrolo[2,1-f][1,2,4]triazin-5-yl)piperidin-3-yl)-3-chloroisothiazole-5-carboxamide, TFA]",13 nM
2,"Cc1cc(C(=O)N[C@@H]2CCCN(c3cc(-c4ccc(S(C)(=O)=O)cc4)n4ncnc(N)c34)C2)sn1 [Example 73, (R)-N-(1-(4-amino-7-(4-(methylsulfonyl)phenyl)pyrrolo[2,1-f][1,2,4]triazin-5-yl)piperidin-3-yl)-3-methylisothiazole-5-carboxamide]",8 nM
3,"CS(=O)(=O)c1ccc(-c2cc(N3CCC[C@@H](NC(=O)c4cc(Cl)no4)C3)c3c(N)ncnn23)cc1 [Example 74, (R)-N-(1-(4-amino-7-(4-(methylsulfonyl)phenyl)pyrrolo[2,1-f][1,2,4]triazin-5-yl)piperidin-3-yl)-3-chloroisoxazole-5-carboxamide, TFA]",25 nM
4,"CS(=O)(=O)c1ccc(-c2cc(N3CCC[C@@H](NC(=O)c4cnn(C(F)F)c4)C3)c3c(N)ncnn23)cc1 [Example 75, (R)-N-(1-(4-amino-7-(4-(methylsulfonyl)phenyl)pyrrolo[2,1-f][1,2,4]triazin-5-yl)piperidin-3-yl)-1-(difluoromethyl)-1H-pyrazole-4-carboxamide, TFA]",44 nM
5,"CS(=O)(=O)c1ccc(-c2cc(N3CCC[C@@H](NC(=O)c4cnn(CC(F)(F)F)c4)C3)c3c(N)ncnn23)cc1 [Example 76, (R)-N-(1-(4-amino-7-(4-(methylsulfonyl)phenyl)pyrrolo[2,1-f][1,2,4]triazin-5-yl)piperidin-3-yl)-1-(2,2,2-trifluoroethyl)-1H-pyrazole-4-carboxamide]",53 nM
6,"CC(C)n1cc(C(=O)N[C@@H]2CCCN(c3cc(-c4ccc(S(C)(=O)=O)cc4)n4ncnc(N)c34)C2)cn1 [Example 77, (R)-N-(1-(4-amino-7-(4-(methylsulfonyl)phenyl)pyrrolo[2,1-f][1,2,4]triazin-5-yl)piperidin-3-yl)-1-isopropyl-1H-pyrazole-4-carboxamide, TFA]",31 nM
7,"CS(=O)(=O)c1ccc(-c2cc(N3CCC[C@@H](NC(=O)c4cnn(C5CCOCC5)c4)C3)c3c(N)ncnn23)cc1 [Example 78, (R)-N-(1-(4-amino-7-(4-(methylsulfonyl)phenyl)pyrrolo[2,1-f][1,2,4]triazin-5-yl)piperidin-3-yl)-1-(tetrahydro-2H-pyran-4-yl)-1H-pyrazole-4-carboxamide]",67 nM
8,"CCc1cccc(C(=O)N[C@@H]2CCCN(c3cc(-c4ccc(S(C)(=O)=O)cc4)n4ncnc(N)c34)C2)c1 [Example 79, (R)-N-(1-(4-amino-7-(4-(methylsulfonyl)phenyl)pyrrolo[2,1-f][1,2,4]triazin-5-yl)piperidin-3-yl)-3-ethylbenzamide, TFA]",26 nM
9,"C=Cc1cccc(C(=O)N[C@@H]2CCCN(c3cc(-c4ccc(S(C)(=O)=O)cc4)n4ncnc(N)c34)C2)c1 [Example 80, (R)-N-(1-(4-amino-7-(4-(methylsulfonyl)phenyl)pyrrolo[2,1-f][1,2,4]triazin-5-yl)piperidin-3-yl)-3-vinylbenzamide]",14 nM
10,"CC(C)c1cccc(C(=O)N[C@@H]2CCCN(c3cc(-c4ccc(S(C)(=O)=O)cc4)n4ncnc(N)c34)C2)c1 [Example 81, (R)-N-(1-(4-amino-7-(4-(methylsulfonyl)phenyl)pyrrolo[2,1-f][1,2,4]triazin-5-yl)piperidin-3-yl)-3-isopropylbenzamide]",32 nM
11,"CS(=O)(=O)c1ccc(-c2cc(N3CCC[C@@H](NC(=O)c4cccc(C5CC5)c4)C3)c3c(N)ncnn23)cc1 [Example 82, (R)-N-(1-(4-amino-7-(4-(methylsulfonyl)phenyl)pyrrolo[2,1-f][1,2,4]triazin-5-yl)piperidin-3-yl)-3-cyclopropylbenzamide]",15 nM
12,"CS(=O)(=O)c1ccc(-c2cc(N3CCC[C@@H](NC(=O)c4ccc5c(c4)CC5)C3)c3c(N)ncnn23)cc1 [Example 83, (R)-N-(1-(4-amino-7-(4-(methylsulfonyl)phenyl)pyrrolo[2,1-f][1,2,4]triazin-5-yl)piperidin-3-yl)bicyclo[4.2.0]octa-1(6),2,4-triene-3-carboxamide, TFA]",48 nM
13,"Cc1ccc(C(=O)N[C@@H]2CCCN(c3cc(-c4ccc(S(C)(=O)=O)cc4)n4ncnc(N)c34)C2)cc1C [Example 84, (R)-N-(1-(4-amino-7-(4-(methylsulfonyl)phenyl)pyrrolo[2,1-f][1,2,4]triazin-5-yl)piperidin-3-yl)-3,4-dimethylbenzamide, TFA]",19 nM
14,"CS(=O)(=O)c1ccc(-c2cc(N3CCC[C@@H](NC(=O)c4cccc(Br)c4)C3)c3c(N)ncnn23)cc1 [Example 85, (R)-N-(1-(4-amino-7-(4-(methylsulfonyl)phenyl)pyrrolo[2,1-f][1,2,4]triazin-5-yl)piperidin-3-yl)-3-bromobenzamide, TFA]",27 nM
15,"CS(=O)(=O)c1ccc(-c2cc(N3CCC[C@@H](NC(=O)c4ccnc(Br)c4)C3)c3c(N)ncnn23)cc1 [Example 86, (R)-N-(1-(4-amino-7-(4-(methylsulfonyl)phenyl)pyrrolo[2,1-f][1,2,4]triazin-5-yl)piperidin-3-yl)-2-bromoisonicotinamide, TFA]",9 nM
16,"Cc1ccc(C(=O)N[C@@H]2CCCN(c3cc(-c4ccc(S(C)(=O)=O)cc4)n4ncnc(N)c34)C2)s1 [Example 87, (R)-N-(1-(4-amino-7-(4-(methylsulfonyl)phenyl)pyrrolo[2,1-f][1,2,4]triazin-5-yl)piperidin-3-yl)-5-methylthiophene-2-carboxamide]",2 nM
17,"CS(=O)(=O)c1ccc(-c2cc(N3CCC[C@@H](NC(=O)c4cccs4)C3)c3c(N)ncnn23)cc1 [Example 88, (R)-N-(1-(4-amino-7-(4-(methylsulfonyl)phenyl)pyrrolo[2,1-f][1,2,4]triazin-5-yl)piperidin-3-yl)thiophene-2-carboxamide, TFA]",8 nM
18,"Cc1cc(C(=O)N[C@@H]2CCCN(c3cc(-c4ccc(S(C)(=O)=O)cc4)n4ncnc(N)c34)C2)sc1C [Example 89, (R)-N-(1-(4-amino-7-(4-(methylsulfonyl)phenyl)pyrrolo[2,1-f][1,2,4]triazin-5-yl)piperidin-3-yl)-4,5-dimethylthiophene-2-carboxamide]",6 nM
19,"CS(=O)(=O)c1ccc(-c2cc(N3CCC[C@@H](NC(=O)c4cc5c(s4)CCCC5)C3)c3c(N)ncnn23)cc1 [Example 90, (R)-N-(1-(4-amino-7-(4-(methylsulfonyl)phenyl)pyrrolo[2,1-f][1,2,4]triazin-5-yl)piperidin-3-yl)-4,5,6,7-tetrahydrobenzo[b] thiophene-2-carboxamide]",49 nM
20,"CCc1ccc(C(=O)N[C@@H]2CCCN(c3cc(-c4ccc(S(C)(=O)=O)cc4)n4ncnc(N)c34)C2)s1 [Example 91, (R)-N-(1-(4-amino-7-(4-(methylsulfonyl)phenyl)pyrrolo[2,1-f][1,2,4]triazin-5-yl)piperidin-3-yl)-5-ethylthiophone-2-carboxamide]",10 nM
21,"CS(=O)(=O)c1ccc(-c2cc(N3CCC[C@@H](NC(=O)c4ccc(C5CC5)s4)C3)c3c(N)ncnn23)cc1 [Example 92, (R)-N-(1-(4-amino-7-(4-(methylsulfonyl)phenyl)pyrrolo[2,1-f][1,2,4]triazin-5-yl)piperidin-3-yl)-5-cyclopropylthiophene-2-carboxamide, TFA]",10 nM
22,"CS(=O)(=O)c1ccc(-c2cc(N3CCC[C@@H](NC(=O)c4ccc(F)s4)C3)c3c(N)ncnn23)cc1 [Example 93, (R)-N-(1-(4-amino-7-(4-(methylsulfonyl)phenyl)pyrrolo[2,1-f][1,2,4]triazin-5-yl)piperidin-3-yl)-5-fluorothiophene-2-carboxamide]",5 nM
23,"CS(=O)(=O)c1ccc(-c2cc(N3CCC[C@@H](NC(=O)c4ccc(Cl)s4)C3)c3c(N)ncnn23)cc1 [Example 94, (R)-N-(1-(4-amino-7-(4-(methylsulfonyl)phenyl)pyrrolo[2,1-f][1,2,4]triazin-5-yl)piperidin-3-yl)-5-chlorothiophene-2-carboxamide]",3 nM
24,"CS(=O)(=O)c1ccc(-c2cc(N3CCC[C@@H](NC(=O)c4ccc(Br)s4)C3)c3c(N)ncnn23)cc1 [Example 95, (R)-N-(1-(4-amino-7-(4-(methylsulfonyl)phenyl)pyrrolo[2,1-f][1,2,4]triazin-5-yl)piperidin-3-yl)-5-bromothiophene-2-carboxamide, TFA]",6 nM
25,"COc1ccc(C(=O)N[C@@H]2CCCN(c3cc(-c4ccc(S(C)(=O)=O)cc4)n4ncnc(N)c34)C2)s1 [Example 96, (R)-N-(1-(4-amino-7-(4-(methylsulfonyl)phenyl)pyrrolo[2,1-f][1,2,4]triazin-5-yl)piperidin-3-yl)-5-methoxythiophene-2-carboxamide]",8 nM
26,"Cc1csc(C(=O)N[C@@H]2CCCN(c3cc(-c4ccc(S(C)(=O)=O)cc4)n4ncnc(N)c34)C2)c1 [Example 97, (R)-N-(1-(4-amino-7-(4-(methylsulfonyl)phenyl)pyrrolo[2,1-f][1,2,4]triazin-5-yl)piperidin-3-yl)-4-methylthiophene-2-carboxamide, TFA]",3 nM
27,"CS(=O)(=O)c1ccc(-c2cc(N3CCC[C@@H](NC(=O)c4sccc4F)C3)c3c(N)ncnn23)cc1 [Example 98, (R)-N-(1-(4-amino-7-(4-(methylsulfonyl)phenyl)pyrrolo[2,1-f][1,2,4]triazin-5-yl)piperidin-3-yl)-3-fluorothiophene-2-carboxamide]",14 nM

# Reference: patent publication US20260250290A1 (BRISTOL-MYERS SQUIBB COMPANY, priority 2023, published 2026)
